In patent US11738029B2, “Rucaparib particles and uses thereof” (CRITITECH, INC., priority 2021, dated 2023):

Assays:
Format in all cases: physicochemical
[1] = Bulk density analysis by modified USP <616> Bulk Density of Powders Method I (bulk and tapped)
From the text: As used herein, the bulk density (not tapped) of a particle is the ratio of the mass to the volume (including the interparticulate void volume) of an untapped powder sample.
As used herein, the tapped density of a particle is obtained by mechanically tapping a graduated cylinder containing the sample until little further volume change is observed.
(§1) • Particle Size Distribution (PSD) by Laser Diffraction • Imaging by Scanning Electron Microscopy (SEM) • Specific Surface Area (SSA) determination by BET Sorptometry • Crystalline/amorphous phase determination by Powder X-ray Diffraction (PXRD) • Bulk density analysis by modified USP <616>Bulk Density of Powders Method I

[2] = Particle size distribution (PSD) by laser diffraction, Malvern Mastersizer 3000; details: dispersed in ethyl acetate
Procedure: as §1
Particle size analyses were conducted on a Malvern Mastersizer™ 3000 using the Hydro MV™ dispersion unit. A non-validated general PSD method/dispersant method was used to analyze the rucaparib samples. The sample preparation procedure performed was as follows: • Weigh 10 to 20 mg of rucaparib into a 30-mL vial, add 20 mL of ethyl acetate. Disperse the sample by vortexing then sonicating the suspension in an ultrasonic bath for 1 minute. Then transfer the sample suspension to the Malvern Hydro MV™ dispersion unit to obtain obscuration between 5 and 15%.
Particle size distributions can be viewed in Table 1.

[3] = Specific surface area (SSA) by BET sorptometry
Procedure: As used herein, the “specific surface area” is the total surface area of the rucaparib particle per unit of rucaparib mass as measured by the Brunauer-Emmett-Teller (“BET”) isotherm (i.e.: the BET SSA). As will be understood by those of skill in the art, the SSA is determined on a per gram basis and takes into account both agglomerated and non-agglomerated rucaparib particles in the composition. The BET specific surface area test procedure is a compendial method included in both the United States Pharmaceopeia and the European Pharmaceopeia. The rucaparib particles have a specific surface area (SSA) of at least 12 m^2/g. In various further embodiments, the rucaparib particles have a SSA of at least 13 m^2/g, 14 m^2/g, 15 m^2/g, 16 m^2/g, 17 m^2/g, 18 m^2/g, 19 m^2/g, 20 m^2/g, 21 m^2/g, 22 m^2/g, 23 m^2/g, 24 m^2/g, 25 m^2/g, 26 m^2/g, 27 m^2/g, 28 m^2/g, 29 m^2/g, or 30 m^2/g.
as §1
Specific Surface Area Surface area analyses were conducted on a Quantachrome NOVAtouch™ LX2 BET Sorptometer. Surface area results can be found in Table 1.

[4] = Solubility testing, shake-flask method; details: 24 hours at 20-25° C.
Procedure: The solubility was determined by using a shake-flask method. The drug was added in excess to each solution prepared in duplicate. The vials were placed on a mechanical shaker for 24 hours at 20-25° C. After shaking, solution was removed and filtered through a 0.45 μm PTFE syringe filter and analyzed by UV/Visible spectrophotometry.

SMILES: CNCc1ccc(-c2[nH]c3cc(F)cc4c3c2CCNC4=O)cc1 [Rucaparib, (8-fluoro-2-{4-[(methylamino)methyl]phenyl}-1,3,4,5-tetrahydro-6H-azepino[5,4,3-cd]indol-6-one ((1S,4R)-7,7-dimethyl-2-oxobicyclo[2.2.1]hept-1-yl)]
- Bulk Density ([1]; not tapped): 0.332 gm/cm^3
- Tapped Density ([1]; tapped): 0.427 gm/cm^3
- PSD - Masterisizer Dv-10 [2]: 2.96 μ
- PSD - Masterisizer Dv-50 [2]: 13.6 μ
- PSD - Masterisizer Dv-90 [2]: 26.8 μ
- Surface Area ([3]; BET): 6.59 m^2/gm
- specific surface area measurement ([3]; material used in dissolution testing): 6.59 m2/g
- Concentration of Rucaparib Found ([4]; 25% ethanol): 115 µg/mL
- Concentration of Rucaparib Found ([4]; 25% methanol): 68.8 µg/mL
- Concentration of Rucaparib Found ([4]; 40% ethanol): 394 µg/mL
- Concentration of Rucaparib Found ([4]; 40% methanol): 739 µg/mL
